Laboratory results: ChEMBL document CHEMBL1131977, “Synthesis and in vitro activity of new oxazolidinone antibacterial agents having substituted isoxazoles” (1999)

How the values were obtained:
Type in all cases: functional
Enterococcus faecium [1] = test: In vitro antibacterial activity against Enterococcus faecium C6301 (E.f.2).
Enterococcus faecium [2] = test: In vitro antibacterial activity against vancomycin-resistant Enterococcus faecium C6487 (VRE).
Enterococcus faecalis = test: In vitro antibacterial activity against Enterococcus faecalis C6291 (E.f.1).
[3] = tested on: Staphylococcus epidermidis; test: In vitro antibacterial activity against Staphylococcus epidermis (S.e.1) […].
[4] = tested on: Staphylococcus epidermidis; test: In vitro antibacterial activity against Staphylococcus epidermis (S.e.2) C2235.
Staphylococcus aureus [5] = test: In vitro antibacterial activity against ciprofloxacin-resistant Staphylococcus aureus (CRSA) C6043.
Staphylococcus aureus [6] = test: In vitro antibacterial activity against Staphylococcus aureus (S. a.) ATCC 29213.
Staphylococcus aureus [7] = test: In vitro antibacterial activity against methicillin-resistant Staphylococcus aureus (MRSA) C6068.
Staphylococcus aureus [8] = test: In vitro antibacterial activity against methicillin-susceptible Staphylococcus aureus (MSSA) C2214.
Streptococcus pyogenes [9] = test: In vitro antibacterial activity against Streptococcus pyogenes ATCC 8668 (S.p.1).
Streptococcus pyogenes [10] = test: In vitro antibacterial activity against Streptococcus pyogenes C6003 (S.p.2).

Measured: MIC

CC(=O)NC[C@H]1CN(c2ccc(N3CCN(C(=O)c4cc(Cl)no4)CC3)c(F)c2)C(=O)O1
2 µg/mL: Enterococcus faecium [1] | Enterococcus faecium [2] | Enterococcus faecalis | Staphylococcus aureus [5]
4 µg/mL: Staphylococcus aureus [6] | Staphylococcus aureus [8]
1 µg/mL: all other assays above

CC(=O)NC[C@H]1CN(c2ccc(N3CCN(C(=O)c4cc(OCCF)no4)CC3)c(F)c2)C(=O)O1
4 µg/mL: Staphylococcus aureus [6]
1 µg/mL: Enterococcus faecium [1] | Enterococcus faecium [2] | [3]
0.5 µg/mL: Streptococcus pyogenes [9] | Streptococcus pyogenes [10]
2 µg/mL: all other assays above

CC(=O)NC[C@H]1CN(c2ccc(N3CCN(Cc4cc(C)no4)CC3)c(F)c2)C(=O)O1
16 µg/mL: all assays above

CC(=O)NC[C@H]1CN(c2ccc(N3CCN(C(=O)c4cc(-c5cccs5)no4)CC3)c(F)c2)C(=O)O1
0.25 µg/mL: [3]
0.5 µg/mL: Streptococcus pyogenes [9] | Streptococcus pyogenes [10]
1 µg/mL: all other assays above

CC(=O)NC[C@H]1CN(c2ccc(N3CCN(Cc4cc(-c5cccs5)no4)CC3)c(F)c2)C(=O)O1
1 µg/mL: [4] | Streptococcus pyogenes [9] | Streptococcus pyogenes [10]
2 µg/mL: Enterococcus faecium [1] | Enterococcus faecalis | Staphylococcus aureus [5]
22 µg/mL: Enterococcus faecium [2]
4 µg/mL: all other assays above

CC(=O)NC[C@H]1CN(c2ccc(N3CCN(Cc4cc(-c5ccc(C)cc5)no4)CC3)c(F)c2)C(=O)O1
16 µg/mL: Enterococcus faecalis
4 µg/mL: [3] | Streptococcus pyogenes [9] | Streptococcus pyogenes [10]
32 µg/mL: Staphylococcus aureus [5] | Staphylococcus aureus [6] | Staphylococcus aureus [8]
8 µg/mL: all other assays above

CC(=O)NC[C@H]1CN(c2ccc(N3CCN(C(=O)c4cc(-c5cnsn5)no4)CC3)c(F)c2)C(=O)O1
0.5 µg/mL: Streptococcus pyogenes [9] | Streptococcus pyogenes [10]
2 µg/mL: Enterococcus faecium [1] | Enterococcus faecalis | Staphylococcus aureus [5]
4 µg/mL: Staphylococcus aureus [6] | Staphylococcus aureus [8]
1 µg/mL: all other assays above

CC(=O)NC[C@H]1CN(c2ccc(N3CCN(C(=O)c4cc(C(=O)N(C)C)no4)CC3)c(F)c2)C(=O)O1
1 µg/mL: Streptococcus pyogenes [9] | Streptococcus pyogenes [10]
8 µg/mL: Staphylococcus aureus [5] | Staphylococcus aureus [6] | Staphylococcus aureus [8]
2 µg/mL: [3] | [4] | Staphylococcus aureus [7]
4 µg/mL: all other assays above

CC(=O)NC[C@H]1CN(c2ccc(N3CCN(Cc4cc(-c5ccc(Cl)cc5)no4)CC3)c(F)c2)C(=O)O1
16 µg/mL: [3] | Staphylococcus aureus [7]
4 µg/mL: Streptococcus pyogenes [9] | Streptococcus pyogenes [10]
> 32 µg/mL: Enterococcus faecalis | Staphylococcus aureus [5] | Staphylococcus aureus [6]
32 µg/mL: all other assays above
